{
  "source": "patent US6020305A",
  "about": "“Treatment of stress-induced skin disease by corticotropin releasing hormone antagonists and skin mast cell degranulation inhibitors” (Kos Pharmaceuticals, Inc., priority 1996, dated 2000)",
  "key": {"[1]": {"system": "skin mast cells", "assay": "Effect of drug pretreatment on dye extravasation induced by CRH", "type": "in vivo, rat", "details": "for Dye Extravasation (color intensity) by CRH after drug pretreatment: drug 10^-4 M pretreatment, then CRH 10^-4 M, n = 3", "procedure": "(§1) 1. For extravasation experiments, male Sprague/Dawley rats, each weighing approximately 350 g (Taconic Farms, Germantown, N.Y.), were anesthetized with a single intraperitoneal injection of 0.5 ml ketamine and 0.5 ml xylazine (20 mg/ml each) and then injected intravenously with 0.1 ml of 1% Evan's blue 60 min prior to treatment.\n(§2) 3. The pretreatment solution, when appropriate, was drawn first in the syringe followed by CRH from which it was separated by an air bubble. The pretreatment solution was injected first and was allowed to remain in the skin for 1 min; the needle was then changed, the air bubble ejected and CRH was injected and allowed to stay in the skin for 5 min. The animal was then killed by asphyxiation over CO2 vapor and decapitated; the skin was removed, turned over and photographed."}, "[2]": {"system": "skin mast cells", "assay": "Skin mast cell degranulation at injection site, light microscopy (toluidine blue)", "type": "in vivo, rat", "details": "for Mast Cell Degranulation, Deg. MC: count of degranulated mast cells", "excerpt": "4. In other rats, the skin was rapidly removed at the end of the injection period and was fixed in 4% paraformaldehyde for light microscopy (Theoharides et al., Int. Arch. Allergy Immunol. 102:352 (1993)), which is incorporated herein by reference in its entirety. The tissue was then frozen and thin sections (7 μ) were cut using a cryostat (Jung CM 3000, Leica, Luc. Deerfield, Ill.). The sections were stained with acidified (pH<2.5) toluidine blue (Sigma, St. Louis) and all mast cells were counted, by two different researchers blinded to the experimental conditions, at 400× magnification using a Diaphot inverted Nikon microscope (Don Santo, Mass.)."}, "[3]": {"system": "pleural mast cells", "assay": "Histamine release from purified pleural mast cells", "type": "cell-based, rat"}, "[4]": {"system": "peritoneal mast cells", "assay": "Histamine release from purified peritoneal mast cells", "type": "cell-based, rat"}, "[5]": {"system": "skin mast cells", "assay": "Dye (Evan's blue) extravasation after intradermal injection", "type": "in vivo, rat", "procedure": "as §1, §2"}, "[6]": {"system": "skin mast cells", "assay": "Ultrastructural analysis of CRH-treated skin mast cells", "type": "in vivo, rat", "details": "CRH-injected sites", "excerpt": "The effect of CRH on both vasodilation and mast cell activation was dose-dependent from 10^-4 M-10^-8 M (Table 1)."}, "[7]": {"system": "skin mast cells", "assay": "Skin mast cell activation by CRH in rats treated neonatally with capsaicin", "type": "in vivo, rat", "details": "CRH 10^-4 M, neonatal capsaicin"}},
  "note": "Ends that are not written are not given here.",
  "data": [
    {"compound": "OCCOCCN1CCN(C(c2ccccc2)c2ccc(Cl)cc2)CC1", "note": "(stereo not drawn) [Hydroxyzine, hydroxyzine]", "values": [
      {"measurement": "Dye Extravasation (color intensity) by CRH after drug pretreatment", "setting": "[1]", "value": "blocked the CRH effect entirely"}
    ]},
    {"compound": "CC(C)(C)c1ccc(C(O)CCCN2CCC(C(O)(c3ccccc3)c3ccccc3)CC2)cc1", "note": "(stereo not drawn) [Terfenadine, terfenadine]", "values": [
      {"measurement": "Dye Extravasation (color intensity) by CRH after drug pretreatment", "setting": "[1]", "value": "reduced the CRH effect slightly"}
    ]},
    {"compound": "[D-Phe^12 Nle^21,38, Ala^32 ]rCRH(12-41) [CRH-α]", "values": [
      {"measurement": "inhibition of dye extravasation by CRH", "setting": "[1]; antagonist 10^-4 M, CRH 10^-6 M", "value": "could not inhibit"},
      {"measurement": "block of the effect of CRH", "setting": "[1]; plasma extravasation and mast cell degranulation", "value": "did not block"},
      {"measurement": "Mast Cell Degranulation, % total deg.", "setting": "[2]; 10^-4 M", "value": 25, "unit": "% total"},
      {"measurement": "Mast Cell Degranulation, Deg. MC", "setting": "[2]; 10^-4 M", "value": 28}
    ]},
    {"compound": "substance P [SP]", "values": [
      {"measurement": "Histamine Release (% total), Pleural + Calcium", "setting": "[3]; 10^-4 M", "value": 49.346, "unit": "% total"},
      {"measurement": "Histamine Release (% total), Pleural - Calcium", "setting": "[3]; 10^-4 M", "value": 54.591, "unit": "% total"},
      {"measurement": "Histamine Release (% total), Pleural + Calcium", "setting": "[3]; 10^-5 M", "value": 22.919, "unit": "% total"},
      {"measurement": "Histamine Release (% total), Pleural - Calcium", "setting": "[3]; 10^-5 M", "value": 28.871, "unit": "% total"},
      {"measurement": "Histamine Release (% total), Pleural + Calcium", "setting": "[3]; 10^-6 M", "value": 2.088, "unit": "% total"},
      {"measurement": "Histamine Release (% total), Pleural - Calcium", "setting": "[3]; 10^-6 M", "value": 8.538, "unit": "% total"},
      {"measurement": "Histamine Release (% total), Peritoneal Calcium", "setting": "[4]; 10^-5 M", "value": 39.5, "unit": "% total"}
    ]},
    {"compound": "CN(C)CCC=C1c2ccccc2COc2ccccc21", "note": "[Doxepin, doxepin]", "values": [
      {"measurement": "Dye Extravasation (color intensity) by CRH after drug pretreatment", "setting": "[1]", "value": "blocked the CRH effect entirely"}
    ]},
    {"compound": "Corticotropin-Releasing Hormone (SEEPPISLDLTFHLLREVLEMARAEQLAQQAHSNRKLMEII; ends and bridges not checked; UniProt P06850 154-194, looked up) [CRH, major regulator of the hypothalamic-pituitary-adrenal axis; peptide from Sigma]", "values": [
      {"measurement": "dose dependence of effect on vasodilation and mast cell activation", "setting": "[5]; 10^-4 M-10^-8 M", "value": "dose-dependent"},
      {"measurement": "skin vascular permeability, as evidenced by dye extravasation", "setting": "[5]; compared with equimolar C48/80 or SP", "value": "marked increases"},
      {"measurement": "Mast Cell Degranulation, Deg. MC", "setting": "[2]; 10^-4 M", "value": 426},
      {"measurement": "Mast Cell Degranulation, % total deg.", "setting": "[2]; 10^-5 M", "value": 37, "unit": "% total"},
      {"measurement": "Mast Cell Degranulation, Deg. MC", "setting": "[2]; 10^-5 M", "value": 327},
      {"measurement": "Mast Cell Degranulation, % total deg.", "setting": "[2]; 10^-6 M", "value": 42, "unit": "% total"},
      {"measurement": "Mast Cell Degranulation, Deg. MC", "setting": "[2]; 10^-6 M", "value": 331},
      {"measurement": "Mast Cell Degranulation, % total deg.", "setting": "[2]; 10^-7 M", "value": 37, "unit": "% total"},
      {"measurement": "Mast Cell Degranulation, Deg. MC", "setting": "[2]; 10^-7 M", "value": 329},
      {"measurement": "Mast Cell Degranulation, % total deg.", "setting": "[2]; 10^-8 M", "value": 32, "unit": "% total"},
      {"measurement": "Mast Cell Degranulation, Deg. MC", "setting": "[2]; 10^-8 M", "value": 254},
      {"measurement": "Mast Cell Degranulation, % total deg.", "setting": "[2]; 10^-9 M", "value": 28, "unit": "% total"},
      {"measurement": "Mast Cell Degranulation, Deg. MC", "setting": "[2]; 10^-9 M", "value": 202},
      {"measurement": "Mast Cell Degranulation, % total deg.", "setting": "[2]; 10^-10 M", "value": 26, "unit": "% total"},
      {"measurement": "Mast Cell Degranulation, Deg. MC", "setting": "[2]; 10^-10 M", "value": 239},
      {"measurement": "ultrastructural signs of mast cell activation (loss of electron dense granule content)", "setting": "[6]", "value": "obvious sign of activation"},
      {"measurement": "mast cell activation in capsaicin-treated animals", "setting": "[7]", "value": "unaffected"},
      {"measurement": "Histamine Release (% total), Pleural + Calcium", "setting": "[3]; 10^-4 M", "value": 22.06, "unit": "% total"},
      {"measurement": "Histamine Release (% total), Pleural - Calcium", "setting": "[3]; 10^-4 M", "value": 34.244, "unit": "% total"},
      {"measurement": "Histamine Release (% total), Pleural + Calcium", "setting": "[3]; 10^-5 M", "value": 2.102, "unit": "% total"},
      {"measurement": "Histamine Release (% total), Pleural - Calcium", "setting": "[3]; 10^-5 M", "value": 8.579, "unit": "% total"},
      {"measurement": "Histamine Release (% total), Pleural + Calcium", "setting": "[3]; 10^-6 M", "value": 1.411, "unit": "% total"},
      {"measurement": "Histamine Release (% total), Pleural - Calcium", "setting": "[3]; 10^-6 M", "value": 4.253, "unit": "% total"},
      {"measurement": "histamine release from pleural mast cells", "setting": "[3]; in words, required absence of extracellular calcium ions", "value": "induced histamine release"},
      {"measurement": "Histamine Release (% total), Peritoneal Calcium", "setting": "[4]; 10^-4 M", "value": 25.5, "unit": "% total"},
      {"measurement": "Histamine Release (% total), Peritoneal + Calcium", "setting": "[4]; 10^-4 M", "value": 6.3, "unit": "% total"},
      {"measurement": "Histamine Release (% total), Peritoneal Calcium", "setting": "[4]; 10^-5 M", "value": 6.9, "unit": "% total"},
      {"measurement": "Histamine Release (% total), Peritoneal + Calcium", "setting": "[4]; 10^-5 M", "value": 1.9, "unit": "% total"},
      {"measurement": "Histamine Release (% total), Peritoneal Calcium", "setting": "[4]; 10^-6 M", "value": 4.9, "unit": "% total"},
      {"measurement": "Histamine Release (% total), Peritoneal + Calcium", "setting": "[4]; 10^-6 M", "value": 2.0, "unit": "% total"},
      {"measurement": "effect on peritoneal mast cells (histamine release)", "setting": "[4]; in words", "value": "largely ineffective"}
    ]},
    {"compound": "C[C@H](N)C(=O)NCC(=O)N[C@H]1CSSC[C@@H](C(=O)O)NC(=O)[C@H](CO)NC(=O)[C@H]([C@@H](C)O)NC(=O)[C@H](Cc2ccccc2)NC(=O)[C@H]([C@@H](C)O)NC(=O)[C@H](CCCCN)NC(=O)[C@H](Cc2c[nH]c3ccccc23)NC(=O)[C@H](Cc2ccccc2)NC(=O)[C@H](Cc2ccccc2)NC(=O)[C@H](CC(N)=O)NC(=O)[C@H](CCCCN)NC1=O", "note": "[Somatostatin, somatostatin]", "values": [
      {"measurement": "Dye Extravasation (color intensity) by CRH after drug pretreatment", "setting": "[1]", "value": "more dye extravasation than CRH alone"},
      {"measurement": "fluid extravasation, substance alone", "setting": "[5]; 10^-12 M", "value": "still apparent"},
      {"measurement": "fluid extravasation, substance alone", "setting": "[5]; alone, as strong as that seen with CRH", "value": "significant fluid extravasation"}
    ]}
  ]
}
